Molecules are shown by their SMILES. “And” between values parts separate entries of the source, which are not always exact repeats. Identical values can stand only once. Marks after values point to notes of the source that are not given here.

These results are taken from patent US20180193401A1, “ANTI-OBESITY COMPOSITION COMPRISING NATURAL COMPLEX” (MEGABIOWOOD CO., LTD., priority 2017, published 2018).

Assay [1] has as its system 3T3-L1 adipocytes. Kind of assay: Analysis of leptin production (ELISA kit). It is filed as cell-based. The following applies: 100 μg/mL; differentiated adipocytes 0.50±0.01. On the procedure:
An adipocyte 3T3-L1 cell line was purchased from the American Type Culture Collection (Rockville, Md., USA), and cultured at 37° C. in a DMEM (Invitrogen, USA) medium supplemented with 10% fetal bovine serum (FBS; Invitrogen, USA) in a 5% CO2 incubator. To avoid contamination, 100 units/mL of penicillin and 100 μg/mL of streptomycin (Gibco/BRL, USA) as antibiotics were added thereto, and the cells were treated with trypsin-EDTA (Gibco/BRL, USA), and sub-cultured. The medium was replaced with a fresh one every two or three days. For treatment with the extract complex, the cultured 3T3-L1 cell line was transferred to a 24-well plate (Corning, USA) at a density of 1×10^5 cells/well. After the medium was replaced with a FBS-free medium the next evening, the 3T3-L1 cell line was treated for 16 hours. Leptin is a hormone that is produced by an obesity gene in adipocytes. Thus, a blood leptin concentration has been widely used for obesity research as an indicator of body fat mass because a secretion rate of leptin increases with an increase in fat accumulated in the adipocytes. […] 3T3-L1 adipocytes were treated with each of the 30% ethanol extract complex of bamboo leaves plus quince and the hot-water extract complex of bamboo leaves plus quince at concentrations of 50 and 100 μg/mL, and a concentration of leptin was then measured using an ELISA kit.

Assay [2] has as its system 3T3-L1 adipocytes. Kind of assay: Analysis of glycerol release. It is filed as cell-based. The settings on record: 100 μg/mL; differentiated adipocytes 18.10±2.28. On the procedure: (§1) An adipocyte 3T3-L1 cell line was purchased from the American Type Culture Collection (Rockville, Md., USA), and cultured at 37° C. in a DMEM (Invitrogen, USA) medium supplemented with 10% fetal bovine serum (FBS; Invitrogen, USA) in a 5% CO2 incubator. To avoid contamination, 100 units/mL of penicillin and 100 μg/mL of streptomycin (Gibco/BRL, USA) as antibiotics were added thereto, and the cells were treated with trypsin-EDTA (Gibco/BRL, USA), and sub-cultured. The medium was replaced with a fresh one every two or three days. For treatment with the extract complex, the cultured 3T3-L1 cell line was transferred to a 24-well plate (Corning, USA) at a density of 1×10^5 cells/well. After the medium was replaced with a FBS-free medium the next evening, the 3T3-L1 cell line was treated for 16 hours. 3T3-L1 adipocytes were treated with each of the 30% ethanol extract complex of bamboo leaves plus quince and the hot-water extract complex of bamboo leaves plus quince at concentrations of 50 and 100 μg/mL to measure an amount of glycerol production. An amount of glycerol production in undifferentiated pre-adipocytes was 2.46±1.34 μg/mL, an amount of glycerol production in differentiated adipocytes was 18.10±2.28 μg/mL, and an amount of glycerol production in the positive control was 32.09±1.23 μg/mL when HCA was present at a concentration of 100 μg/m L.

The subject of assay [3] is 3T3-L1 adipocytes. Kind of assay: Analysis of triglyceride content. Type of assay: cell-based. The settings on record: 100 μg/mL; differentiated adipocytes 126.2±1.25. On the procedure:
as §1, with “measure” for “measure an amount of glycerol production. An amount of glycerol production in undifferentiated pre-adipocytes was 2.46±1.34 μg/mL, an amount of glycerol production in differentiated adipocytes was 18.10±2.28 μg/mL, and an amount of glycerol production in the positive control was 32.09±1.23 μg/mL when HCA was present at”, “triglycerides.” for “100 μg/m L.”

The subject of assay [4] is C57BL/6J mice. Kind of assay: Body weight gain, food intake and food efficiency ratio, 8-week oral administration. It is filed as in vivo. The following applies: HD (high-fat diet), HCA 300 mg/kg BW/day oral, 8 weeks. From the text: (§2) Four-week-old male C57BL/6J mice were purchased from Central Lab-Animal Inc. (Seoul, Korea), adapted for a week to a normal diet in which fats accounted for 10% of the total calories, and then used for experiments. To induce obesity, a high fat diet in which fats accounted for 60% of the total calories was supplied to all groups other than a normal diet (ND) group and an ND sample group, and a normal diet in which fats accounted for 10% of the total calories was freely supplied to the ND group and the ND sample group for a total of 8 weeks. The experimental groups were divided into a total of 6 groups: a ND group, a high fat diet (HD) group, a positive control (HCA), a sample group (ND+JMW) in which a hot-water extract complex of bamboo leaves plus quince was administered to the ND group, and sample-efficacy groups (HD+JMW200 and HD+JMW400) in which a two-fold concentration of the hot-water extract complex of bamboo leaves plus quince was administered to the high fat diet group. In this case, ten mice were assigned to each group using a randomized block design, and used for experiments. To check an anti-obesity effect of the sample extract for 8 weeks (week 1 to 8) after a one-week adaptation, the test material was dissolved in distilled water, and orally administered to the positive control, the ND sample group, and the HD sample-efficacy groups once a day at a concentration of 300 mg/kg BW/day, 400 mg/kg BW/day, 200 mg/kg BW/day, and 400 mg/kg BW/day, respectively. Also, distilled water was administered to the ND group and the HD group. After laboratory animals were adapted for a week, the hot-water extract complex of bamboo leaves plus quince was orally administered to the C57BL/6J mice for 8 weeks to observe a change in body weight.

For assay [5], the system named is C57BL/6J mice. As to the kind of experiment: Weight of adipose tissues (EAT, BAT). Type of assay: in vivo. The settings on record: HD (high-fat diet), HCA 300 mg/kg BW/day oral, 8 weeks.
Excerpt: as §2, with “[…] The weights” for “To check an anti-obesity effect”, “adipose tissues in” for “sample extract for 8 weeks (week 1 to 8) after a one-week adaptation,”, “the” for “the test material was dissolved in distilled water, and orally administered to the positive control, the ND sample group, and the HD sample-efficacy groups once a day at a concentration of 300 mg/kg BW/day, 400 mg/kg BW/day, 200 mg/kg BW/day, and 400 mg/kg BW/day, respectively. Also, distilled water was administered to the ND group and the HD group. After”, “treated with” for “were adapted for a week,”, “were measured.” for “was orally administered to the C57BL/6J mice for 8 weeks to observe a change in body weight.”

In assay [6] the test system is C57BL/6J mice. Kind of assay: Analysis of blood lipids. The settings on record: HD (high-fat diet), HCA 300 mg/kg BW/day oral, 8 weeks. Type of assay: in vivo.
Excerpt: as §2, with “An amount of blood lipids (triglycerides and cholesterol) was measured in the” for “After”, “treated with” for “were adapted for a week,”, “quince.” for “quince was orally administered to the C57BL/6J mice for 8 weeks to observe a change in body weight.”

Take `O=C(O)CC(O)(C(=O)O)C(O)C(=O)O` (stereo not shown) [HCA, hydroxycitric acid]: the “amount of leptin production” value in the assay on 3T3-L1 adipocytes [1] came out at 0.39 ± 0.01 ng/mL. For the same compound, the “amount of glycerol production” value in the assay on 3T3-L1 adipocytes [2] amounted to 32.09 ± 1.23 µg/mL. The triglyceride content with 3T3-L1 adipocytes [3] is listed as 98.01±1.24 μg/mg protein. In addition, in the assay with C57BL/6J mice [4], the Final body weight is recorded as 33.50 ± 3.58^b g; the Food intake was 3.79 g/day and 3.79 ± 0.05^c g/day; the Weight gain was 12.83 g/8 weeks and 12.83 ± 0.94^b g/8 weeks. In the assay with C57BL/6J mice [5], the “BAT (brown adipose tissue) weight” value is on record as 0.09 ± 0.02^b g; the “EAT (epididymal adipose tissue) weight” value is 1.70 g and 1.70 ± 0.14^b g. In the assay on C57BL/6J mice [6], the HDL-cholesterol was 75.66 mg/dL and 75.66 ± 8.11^b mg/dL; the LDL-cholesterol is reported as 131.06 ± 6.82^b mg/dL; the “Total cholesterol (blood)” value is 241.53 mg/dL and 241.53 ± 8.87^b mg/dL; the “Triglyceride (blood)” value is 174.08 mg/dL and 174.08 ± 3.49^b mg/dL. Besides, the LDL-cholesterol in the assay with C57BL/6J mice [6] (listed as positive control) turned out to be 131.06 mg/dL.
